Experimental data reported in PubChem BioAssay (NCI).
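Values below derive from 48-hour exposures of cells grown in 96-well plates, with endpoints linearly interpolated between the two concentrations bracketing the appropriate inhibition level. The concentration for 50% growth inhibition is given as GI50. Definition used: TGI = concentration required for complete inhibition of growth.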

What was measured:
Test in all cases: NCI-60 cell line screen, 48 h
K-562 leukemia = tested on: K-562 leukemia
LOX IMVI melanoma = tested on: LOX IMVI melanoma
OVCAR-8 ovarian = tested on: OVCAR-8 ovarian
SF-268 CNS = tested on: SF-268 CNS
SF-539 CNS = tested on: SF-539 CNS
SK-OV-3 ovarian = tested on: SK-OV-3 ovarian
U251 CNS = tested on: U251 CNS
UACC-257 melanoma = tested on: UACC-257 melanoma
DLD-1 colon = tested on: DLD-1 colon
XF 498 CNS = tested on: XF 498 CNS

| SMILES | GI50 (K-562 leukemia) | TGI (K-562 leukemia) | GI50 (LOX IMVI melanoma) | TGI (LOX IMVI melanoma) | GI50 (OVCAR-8 ovarian) | GI50 (SF-268 CNS) | TGI (SF-268 CNS) | GI50 (SF-539 CNS) | TGI (SF-539 CNS) | GI50 (SK-OV-3 ovarian) | TGI (SK-OV-3 ovarian) | GI50 (U251 CNS) | TGI (U251 CNS) | GI50 (UACC-257 melanoma) | TGI (UACC-257 melanoma) | TGI (OVCAR-8 ovarian) | TGI (DLD-1 colon) | TGI (XF 498 CNS) |
| --- | --- | --- | --- | --- | --- | --- | --- | --- | --- | --- | --- | --- | --- | --- | --- | --- | --- | --- |
| C[C@@H](CS[As](C)C)C(=O)N1CCC[C@H]1C(=O)O | 0.051 µM | 1.1 µM | 0.172 µM | 0.673 µM | 0.299 µM | 0.788 µM | 6.45 µM | 0.131 µM | 1.41 µM | 0.625 µM | 14.6 µM | 0.482 µM | 2.43 µM | 1.45 µM | 7.8 µM | – | – | – |
| COc1ccc(/C=C2\COc3ccc(O)c(O)c3C2=O)cc1OC | 0.467 µM | > 100 µM | 1.12 µM | 2.54 µM | 1.68 µM | 1.7 µM | 5.64 µM | 1.57 µM | 3.03 µM | 3.83 µM | > 100 µM | 0.991 µM | 7.2 µM | 1.75 µM | 4.93 µM | 15.7 µM | – | – |
| COc1c(B(O)O)cccc1-c1nc2ccc3[nH]ncc3c2c2c1CCCC2 | 3.4 µM | > 100 µM | 1.38 µM | 6.28 µM | 2.39 µM | 1.95 µM | 12.5 µM | 0.133 µM | 2.81 µM | 1.19 µM | 10.4 µM | 2.69 µM | 18.5 µM | 2.88 µM | 24.6 µM | > 38.8 µM | – | – |
| Cc1ccc(NC(=S)C#N)c(C)c1 | – | > 100 µM | – | > 100 µM | – | – | > 100 µM | – | > 100 µM | – | > 100 µM | – | > 100 µM | – | > 100 µM | > 100 µM | – | – |
| CC(C)(C)C(=O)c1c(C(F)(F)F)n([O-])c2cc(Cl)c(Cl)cc2[n+]1=O | 0.582 µM | 1.15 µM | 1.04 µM | – | 0.502 µM | 0.457 µM | 0.902 µM | 0.563 µM | 1.04 µM | 0.815 µM | 2.07 µM | 0.492 µM | 0.951 µM | 1.28 µM | 2.86 µM | 1.51 µM | – | – |
| COc1cccc2c(SCC(=O)Nc3ccccc3-c3ccccc3NC(=O)CSc3c4ccccc4nc4c(OC)cccc34)c3ccccc3nc12 | – | > 100 µM | – | – | – | – | > 100 µM | – | > 100 µM | – | – | – | > 100 µM | – | – | > 100 µM | > 100 µM | > 100 µM |
| C=C1C(=O)O[C@H]2[C@H]1CC/C(COC(=O)CCCCCCCC(=O)OC/C1=C/CC[C@@]3(C)O[C@H]3[C@H]3OC(=O)C(=C)[C@@H]3CC1)=C\CC[C@@]1(C)O[C@@H]21 | 0.927 µM | 10.8 µM | 1.48 µM | 2.95 µM | 2.75 µM | 2.3 µM | 7.41 µM | 1.83 µM | 3.83 µM | 13.1 µM | 34.3 µM | 2.13 µM | 5.37 µM | 2.13 µM | 4.64 µM | 8.44 µM | – | – |
| C[C@H]1COCCN1c1nc(-c2cnc(N)cc2C(F)F)nc(N2CCOCC2)n1 | 0.692 µM | > 100 µM | 0.152 µM | 4.44 µM | 0.291 µM | 0.265 µM | > 100 µM | 0.235 µM | 1.45 µM | 0.0614 µM | 0.412 µM | 0.368 µM | > 100 µM | 0.166 µM | 1.58 µM | > 100 µM | – | – |
| Cc1cc(Cl)nc(N(CCCNc2ccnc3cc(Cl)ccc23)Cc2cccs2)n1 | 0.496 µM | 8.55 µM | 1.22 µM | 2.98 µM | 2.06 µM | 3.36 µM | 16.8 µM | 1.81 µM | 5.85 µM | 3.27 µM | 12.6 µM | 2.18 µM | 10.2 µM | 2.19 µM | 5.49 µM | 10.4 µM | – | – |
| CCN(CC)S(=O)(=O)c1cccc(-c2ccc3c(NC(=O)C4CC4)n[nH]c3c2)c1 | 0.381 µM | > 6.25 µM | 2.44 µM | > 6.25 µM | 2.69 µM | 2.34 µM | > 6.25 µM | 1.47 µM | 5.6 µM | 3.48 µM | > 6.25 µM | 2.1 µM | > 6.25 µM | 2.26 µM | > 6.25 µM | > 6.25 µM | – | – |
| CCOC(=O)C(=O)Nc1c(C)cccc1C(C)(C)C | – | > 100 µM | – | > 100 µM | – | – | > 100 µM | – | > 100 µM | – | > 100 µM | – | > 100 µM | – | > 100 µM | > 100 µM | – | > 100 µM |
| c1cc(C2CCCCC2)ccc1-c1cnc2nonc2n1 | 0.4 µM | 18.8 µM | 0.527 µM | 1.74 µM | 1.38 µM | 2.13 µM | 9.29 µM | 0.548 µM | 1.87 µM | 2.21 µM | 5.98 µM | 1.18 µM | 2.44 µM | 1.28 µM | 3.9 µM | > 19.8 µM | – | – |
| COc1cccc(N2CCN(c3ncnc4cc[nH]c34)CC2)c1 | 1.26 µM | > 100 µM | 13.9 µM | > 100 µM | 3.46 µM | 14.9 µM | > 100 µM | 20.8 µM | > 100 µM | 51.5 µM | > 100 µM | 12.7 µM | > 100 µM | 2.32 µM | 29.2 µM | 56.1 µM | – | – |
| CSc1nnc(-c2cc3c([nH]c4ccccc43)c(-c3cccc(O)c3)n2)n1-c1ccc(C)cc1 | 5.08 µM | > 100 µM | 5.05 µM | > 100 µM | 4.25 µM | 3.83 µM | 48.1 µM | 2.81 µM | 14.1 µM | 3.19 µM | 14 µM | 4.84 µM | 28.7 µM | 5 µM | 44.7 µM | 45.2 µM | – | – |
| COC(=O)c1ccc(NC(=O)c2ccc(NC3=C(Cl)C(=O)N(Cc4ccccc4)C3=O)cc2)cc1 | 19 µM | > 100 µM | 13.3 µM | 26 µM | 11 µM | 22.2 µM | 59 µM | 20.7 µM | 39.4 µM | 20.7 µM | 38.3 µM | 9.63 µM | 21.4 µM | 27.3 µM | 76.5 µM | 24.7 µM | – | – |
